For 22 substances, target mRNA inhibition results are on record in the OligoGym collection.

This data set deals with HBV. Conditions: ASO.

Values joined by “and” are separate entries in the source; they are usually repeats but may differ in a detail not shown here. Equal values may be shown once. HELM strings list units from the 5' end as sugar, base in round brackets, then linkage (d deoxyribose, r ribose, m 2'-O-methyl, p phosphodiester). Methylation of C is not given here. [moe] = 2'-O-(2-methoxyethyl) (MOE); [cEt] = constrained ethyl (cEt); [sp] = phosphorothioate linkage

“RNA1{[moe](T)[sp].[cEt](G)[sp].d(A)[sp].d(G)[sp].d(G)[sp].d(C)[sp].d(A)[sp].d(T)[sp].d(A)[sp].d(G)[sp].d(C)[sp].d(A)[sp].[cEt](G)[sp].[moe](C)[sp].[cEt](A)[sp].[moe](G)}$$$$V2.0”: under “HepG2, 0.07 µM”, the target mRNA inhibition is 69% and 75%.
The same measure, in the same setting: under “RNA1{[moe](A)[sp].[moe](C)[sp].[moe](T)[sp].d(A)[sp].d(G)[sp].d(T)[sp].d(A)[sp].d(A)[sp].d(A)[sp].d(C)[sp].d(T)[sp].d(G)[sp].[moe](A)[sp].[moe](G)[sp].[moe](C)[sp].[moe](C)}$$$$V2.0” stands 64% and 69%; under “RNA1{[moe](A)[sp].[moe](G)[sp].d(A)[sp].d(G)[sp].d(G)[sp].d(T)[sp].d(G)[sp].d(A)[sp].d(A)[sp].d(G)[sp].d(C)[sp].[moe](G)[sp].[moe](A)[sp].[moe](A)[sp].[moe](G)[sp].[moe](T)[sp].[moe](G)}$$$$V2.0”, 56%.
The same measure, in the same setting: under “RNA1{[moe](C)[sp].[moe](A)[sp].[moe](G)[sp].[moe](A)[sp].[moe](G)[sp].d(G)[sp].d(T)[sp].d(G)[sp].d(A)[sp].d(A)[sp].d(G)[sp].d(C)[sp].d(G)[sp].d(A)[sp].[moe](A)[sp].[moe](G)}$$$$V2.0” stands 60% and 57%.
On the same count and under the same terms, under “RNA1{[moe](A)[sp].[moe](C)[sp].[moe](T)[sp].[moe](A)[sp].d(G)[sp].d(T)[sp].d(A)[sp].d(A)[sp].d(A)[sp].d(C)[sp].d(T)[sp].d(G)[sp].d(A)[sp].[moe](G)[sp].[moe](C)[sp].[moe](C)}$$$$V2.0” stands 62% and 63%.
With “RNA1{[moe](C)[sp].[cEt](A)[sp].[cEt](C)[sp].d(G)[sp].d(A)[sp].d(G)[sp].d(T)[sp].d(C)[sp].d(T)[sp].d(A)[sp].d(G)[sp].d(A)[sp].d(C)[sp].[cEt](T)[sp].[cEt](C)[sp].[moe](T)}$$$$V2.0”, the target mRNA inhibition (HepG2, 0.07 µM) was 44% and 38%.
Still for that read-out and setting: under “RNA1{[moe](C)[sp].[moe](A)[sp].[moe](G)[sp].d(A)[sp].d(G)[sp].d(G)[sp].d(T)[sp].d(G)[sp].d(A)[sp].d(A)[sp].d(G)[sp].d(C)[sp].d(G)[sp].[cEt](A)[sp].[cEt](A)[sp].[cEt](G)}$$$$V2.0” stands 60% and 62%; under “RNA1{[moe](A)[sp].[moe](C)[sp].[moe](G)[sp].[moe](T)[sp].[moe](G)[sp].[moe](C)[sp].d(A)[sp].d(G)[sp].d(A)[sp].d(G)[sp].d(G)[sp].d(T)[sp].d(G)[sp].d(A)[sp].d(A)[sp].[moe](G)[sp].[moe](C)}$$$$V2.0”, 78% and 58%; under “RNA1{[moe](C)[sp].[cEt](T)[sp].d(G)[sp].d(A)[sp].d(A)[sp].d(C)[sp].d(A)[sp].d(A)[sp].d(A)[sp].d(T)[sp].d(G)[sp].d(G)[sp].[cEt](C)[sp].[moe](A)[sp].[cEt](C)[sp].[moe](T)}$$$$V2.0”, 58% and 71%.
The same measure, in the same setting: as for “RNA1{[moe](A)[sp].[cEt](A)[sp].[cEt](G)[sp].d(A)[sp].d(A)[sp].d(G)[sp].d(A)[sp].d(T)[sp].d(G)[sp].d(A)[sp].d(G)[sp].d(G)[sp].d(C)[sp].[cEt](A)[sp].[cEt](T)[sp].[moe](A)}$$$$V2.0”, the figure is 62% and 65%; as for “RNA1{[moe](G)[sp].[moe](A)[sp].[moe](G)[sp].[moe](G)[sp].[moe](C)[sp].d(A)[sp].d(T)[sp].d(A)[sp].d(G)[sp].d(C)[sp].d(A)[sp].d(G)[sp].d(C)[sp].d(A)[sp].[moe](G)[sp].[moe](G)}$$$$V2.0”, 44% and 39%; as for “RNA1{[moe](T)[sp].[cEt](T)[sp].[cEt](T)[sp].d(A)[sp].d(T)[sp].d(G)[sp].d(C)[sp].d(C)[sp].d(T)[sp].d(A)[sp].d(C)[sp].d(A)[sp].d(G)[sp].[cEt](C)[sp].[cEt](C)[sp].[moe](T)}$$$$V2.0”, 55% and 49%.
On the same count and under the same terms, under “RNA1{[moe](A)[sp].[cEt](C)[sp].d(C)[sp].d(A)[sp].d(A)[sp].d(T)[sp].d(T)[sp].d(T)[sp].d(A)[sp].d(T)[sp].d(G)[sp].d(C)[sp].[cEt](C)[sp].[moe](T)[sp].[cEt](A)[sp].[moe](C)}$$$$V2.0” stands 40% and 51%; under “RNA1{[moe](A)[sp].[moe](A)[sp].[moe](C)[sp].[moe](C)[sp].d(A)[sp].d(C)[sp].d(T)[sp].d(G)[sp].d(A)[sp].d(A)[sp].d(C)[sp].d(A)[sp].d(A)[sp].[moe](A)[sp].[moe](T)[sp].[moe](G)}$$$$V2.0”, 52% and 54%; under “RNA1{[moe](T)[sp].[cEt](T)[sp].[cEt](C)[sp].d(C)[sp].d(G)[sp].d(C)[sp].d(A)[sp].d(G)[sp].d(T)[sp].d(A)[sp].d(T)[sp].d(G)[sp].d(G)[sp].[cEt](A)[sp].[cEt](T)[sp].[moe](C)}$$$$V2.0”, 47% and 61%.
For the substance “RNA1{[moe](A)[sp].[cEt](G)[sp].[cEt](G)[sp].d(T)[sp].d(G)[sp].d(A)[sp].d(A)[sp].d(G)[sp].d(C)[sp].d(G)[sp].d(A)[sp].d(A)[sp].d(G)[sp].[cEt](T)[sp].[cEt](G)[sp].[moe](C)}$$$$V2.0”, the target mRNA inhibition is 21% (HepG2, 0.009375 µM); 30% (HepG2, 0.01875 µM); 39% (HepG2, 0.0375 µM); 79% (HepG2, 0.07 µM); 61% (HepG2, 0.075 µM); 79% (HepG2, 0.15 µM). Also, under “HepG2, 0.3 µM”, the target mRNA inhibition worked out at 91%.
Consider “RNA1{[moe](C)[sp].[moe](C)[sp].d(A)[sp].d(A)[sp].d(T)[sp].d(T)[sp].d(T)[sp].d(A)[sp].d(T)[sp].d(G)[sp].d(C)[sp].[moe](C)[sp].[moe](T)[sp].[moe](A)[sp].[moe](C)[sp].[moe](A)}$$$$V2.0”, for which, for the setting “HepG2, 0.07 µM”, the target mRNA inhibition was 13% and 22%.
On the same count and under the same terms, under “RNA1{[moe](G)[sp].[moe](C)[sp].[moe](A)[sp].[moe](T)[sp].[moe](A)[sp].d(G)[sp].d(C)[sp].d(A)[sp].d(G)[sp].d(C)[sp].d(A)[sp].d(G)[sp].d(G)[sp].d(A)[sp].[moe](T)[sp].[moe](G)}$$$$V2.0” stands 57% and 54%.
Take “RNA1{[moe](C)[sp].[moe](G)[sp].[moe](C)[sp].[moe](A)[sp].[moe](G)[sp].d(T)[sp].d(A)[sp].d(T)[sp].d(G)[sp].d(G)[sp].d(A)[sp].d(T)[sp].d(C)[sp].d(G)[sp].[moe](G)[sp].[moe](C)}$$$$V2.0”: the target mRNA inhibition (HepG2, 0.07 µM) is 64% and 57%.
In the case of “RNA1{[moe](A)[sp].[moe](A)[sp].[moe](G)[sp].[moe](C)[sp].[moe](G)[sp].d(A)[sp].d(A)[sp].d(G)[sp].d(T)[sp].d(G)[sp].d(C)[sp].d(A)[sp].d(C)[sp].d(A)[sp].[moe](C)[sp].[moe](G)}$$$$V2.0”, under “HepG2, 0.07 µM”, the target mRNA inhibition is 71% and 68%.
Same read-out and setting: under “RNA1{[moe](A)[sp].[moe](C)[sp].[moe](C)[sp].[moe](A)[sp].[moe](A)[sp].d(T)[sp].d(T)[sp].d(T)[sp].d(A)[sp].d(T)[sp].d(G)[sp].d(C)[sp].d(C)[sp].d(T)[sp].[moe](A)[sp].[moe](C)[sp].[moe](A)}$$$$V2.0” stands 33% and 18%.
Same read-out and setting: under “RNA1{[moe](A)[sp].[moe](G)[sp].d(G)[sp].d(A)[sp].d(G)[sp].d(T)[sp].d(T)[sp].d(C)[sp].d(C)[sp].d(G)[sp].d(C)[sp].[moe](A)[sp].[moe](G)[sp].[moe](T)[sp].[moe](A)[sp].[moe](T)[sp].[moe](G)}$$$$V2.0” stands 81% and 63%.
